Experimental data: PubChem BioAssay (NCI)
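Each compound was tested at five concentrations against cells in 96-well plates for 48 hours. Abbreviation: GI50, concentration required for 50% inhibition of growth. TGI: concentration producing complete growth inhibition.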

Experiments:
Experiment in all cases: NCI anticancer screen, dose series, 48 h
KM12 colon = tested on: KM12 colon
MOLT-4 leukemia = tested on: MOLT-4 leukemia
OVCAR-4 ovarian = tested on: OVCAR-4 ovarian
CCRF-CEM leukemia = tested on: CCRF-CEM leukemia
RXF 393 renal = tested on: RXF 393 renal
PC-3 prostate = tested on: PC-3 prostate
MDA-MB-435 = tested on: MDA-MB-435
NCI-H522 lung = tested on: NCI-H522 lung
SF-295 CNS = tested on: SF-295 CNS
HCC-2998 colon = tested on: HCC-2998 colon
T-47D breast = tested on: T-47D breast
HS 578T breast = tested on: HS 578T breast
SN12C renal = tested on: SN12C renal
SF-539 CNS = tested on: SF-539 CNS
ACHN renal = tested on: ACHN renal
A498 renal = tested on: A498 renal
A549 NSCLC = tested on: A549 NSCLC
UACC-257 melanoma = tested on: UACC-257 melanoma
SK-MEL-2 melanoma = tested on: SK-MEL-2 melanoma
SR leukemia = tested on: SR leukemia
OVCAR-3 ovarian = tested on: OVCAR-3 ovarian
UACC-62 melanoma = tested on: UACC-62 melanoma
BT-549 breast = tested on: BT-549 breast
SNB-75 CNS = tested on: SNB-75 CNS
SW-620 colon = tested on: SW-620 colon
OVCAR-8 ovarian = tested on: OVCAR-8 ovarian
HL-60(TB) leukemia = tested on: HL-60(TB) leukemia
RPMI-8226 leukemia = tested on: RPMI-8226 leukemia

In the case of `O=C1C(Br)=CC2C1C1C3CCC3C2(Br)C12OCCO2` (stereo not given), the TGI (KM12 colon) is reported as 8.4 µM, the GI50 (MOLT-4 leukemia) is reported as 3.64 µM and the TGI (MOLT-4 leukemia) is reported as 10.8 µM. The GI50 (OVCAR-4 ovarian) was 2.79 µM, the TGI (OVCAR-4 ovarian) was 14.7 µM and the GI50 (CCRF-CEM leukemia) was 1.82 µM. For the same compound, the TGI (CCRF-CEM leukemia) was 10.5 µM, the GI50 (RXF 393 renal) was 2.64 µM and the TGI (RXF 393 renal) was 11.6 µM. The GI50 (PC-3 prostate) was 3.47 µM, the TGI (PC-3 prostate) was 19 µM and the GI50 (MDA-MB-435) was 2.93 µM. It also gave a TGI (MDA-MB-435) of 13.4 µM, a GI50 (NCI-H522 lung) of 1.82 µM and a TGI (NCI-H522 lung) of 4.73 µM. It also gave a GI50 (SF-295 CNS) of 9.69 µM, a TGI (SF-295 CNS) of 27.5 µM and a GI50 (HCC-2998 colon) of 6.6 µM. The TGI (HCC-2998 colon) was 20.5 µM, the GI50 (T-47D breast) was 2.48 µM and the TGI (T-47D breast) was 12.9 µM. The GI50 (HS 578T breast) was 3.46 µM, the TGI (HS 578T breast) was 71 µM and the GI50 (SN12C renal) was 3.08 µM. It also gave a TGI (SN12C renal) of 15.3 µM, a GI50 (SF-539 CNS) of 2.15 µM and a TGI (SF-539 CNS) of 5.99 µM. For the same compound, the GI50 (ACHN renal) was 2.94 µM, the TGI (ACHN renal) was 12.2 µM and the GI50 (A498 renal) was 2.99 µM. It also gave a TGI (A498 renal) of 11.4 µM, a GI50 (A549 NSCLC) of 2.29 µM and a TGI (A549 NSCLC) of 10.9 µM. For the same compound, the GI50 (UACC-257 melanoma) was 2.14 µM, the TGI (UACC-257 melanoma) was 12.5 µM and the GI50 (SK-MEL-2 melanoma) was 3.17 µM. For the same compound, the TGI (SK-MEL-2 melanoma) was 9.09 µM, the GI50 (SR leukemia) was 0.721 µM and the TGI (SR leukemia) was 6.57 µM. The GI50 (OVCAR-3 ovarian) was 3.24 µM, the TGI (OVCAR-3 ovarian) was 9.88 µM and the GI50 (UACC-62 melanoma) was 2.87 µM. It also gave a TGI (UACC-62 melanoma) of 14.1 µM, a GI50 (BT-549 breast) of 5.03 µM and a TGI (BT-549 breast) of 18.1 µM. It also gave a GI50 (SNB-75 CNS) of 3.42 µM, a TGI (SNB-75 CNS) of 34.7 µM and a GI50 (SW-620 colon) of 3.12 µM. The TGI (SW-620 colon) was 11.6 µM, the GI50 (OVCAR-8 ovarian) was 2.8 µM and the TGI (OVCAR-8 ovarian) was 12.3 µM. The GI50 (HL-60(TB) leukemia) was 2.2 µM, the TGI (HL-60(TB) leukemia) was 5.66 µM and the GI50 (RPMI-8226 leukemia) was 1.71 µM. It also gave a TGI (RPMI-8226 leukemia) of 5.76 µM.
